ChEMBL document CHEMBL5055642, “Strobiloscyphones A-F, 6-Isopentylsphaeropsidones and Other Metabolites from Strobiloscypha sp. AZ0266, a Leaf-Associated Fungus of Douglas Fir” (J Nat Prod, 2021)
Converted amounts (≈) assume the structure as drawn. The source made the active and inactive calls. No cut-off for these calls is given here.

Columns and labels:
WI-38 [1] = assay: Cytotoxicity against human WI-38 cells assessed as inhibition of cell proliferation up to 10 uM measured after 72 hrs by resazurin dye based AlamarBlue assay; details: wi-38, 72 h
SF-268 [2] = assay: Cytotoxicity against human SF-268 cells assessed as inhibition of cell proliferation up to 10 uM measured after 72 hrs by resazurin dye based AlamarBlue assay; format: functional
NCI-H460 [3] = assay: Cytotoxicity against human NCI-H460 cells assessed as inhibition of cell proliferation up to 10 uM measured after 72 hrs by resazurin dye based AlamarBlue assay; format: functional
MCF7 [4] = assay: Cytotoxicity against human MCF7 cells assessed as inhibition of cell proliferation up to 10 uM measured after 72 hrs by resazurin dye based AlamarBlue assay; format: functional
PC-3M [5] = assay: Cytotoxicity against human PC-3M cells assessed as inhibition of cell proliferation up to 10 uM measured after 72 hrs by resazurin dye based AlamarBlue assay; format: functional
MDA-MB-231 [6] = assay: Cytotoxicity against human MDA-MB-231 cells assessed as inhibition of cell proliferation up to 10 uM measured after 72 hrs by resazurin dye based AlamarBlue assay; format: functional
Candida albicans [7] = assay: Antifungal activity against Candida albicans ATCC 10261 assessed as inhibition of fungal growth at 50 ug/ml incubated for 24 hrs by CLSI method relative to control; format: functional
Candida albicans [8] = assay: Antifungal activity against Candida albicans ATCC 10261 assessed as inhibition of fungal growth at 100 ug/ml incubated for 24 hrs by CLSI method relative to control; format: functional
MCF7 [9] = assay: Cytotoxicity against human MCF7 cells assessed as inhibition of cell proliferation measured after 72 hrs by resazurin dye based AlamarBlue assay; format: functional; details: MCF7, 72 h
WI-38 [10] = assay: Cytotoxicity against human WI-38 cells assessed as inhibition of cell proliferation measured after 72 hrs by resazurin dye based AlamarBlue assay; details: WI-38, 72 h
SF-268 [11] = assay: Cytotoxicity against human SF-268 cells assessed as inhibition of cell proliferation measured after 72 hrs by resazurin dye based AlamarBlue assay; format: functional; details: SF-268, 72 h
NCI-H460 [12] = assay: Cytotoxicity against human NCI-H460 cells assessed as inhibition of cell proliferation measured after 72 hrs by resazurin dye based AlamarBlue assay; format: functional; details: NCI-H460, 72 h
Escherichia coli [13] = assay: Antibacterial activity against Escherichia coli ATCC 25922 assessed as inhibition of bacterial growth incubated for 24 hrs by CLSI method; format: functional
Candida albicans [14] = assay: Antifungal activity against Candida albicans ATCC 10261 assessed as inhibition of fungus growth incubated for 24 hrs by CLSI method; format: functional
Candida albicans [15] = assay: Antifungal activity against Candida albicans ATCC 10261 assessed as inhibition of fungal growth at 12.5 ug/ml incubated for 24 hrs by CLSI method relative to control; format: functional
Staphylococcus aureus = assay: Antibacterial activity against Staphylococcus aureus ATCC 25923 assessed as inhibition of bacterial growth incubated for 24 hrs by CLSI method; format: functional
PC-3M [16] = assay: Cytotoxicity against human PC-3M cells assessed as inhibition of cell proliferation measured after 72 hrs by resazurin dye based AlamarBlue assay; format: functional
Candida albicans [17] = assay: Antifungal activity against Candida albicans ATCC 10261 assessed as inhibition of fungal growth at 6.25 ug/ml incubated for 24 hrs by CLSI method relative to control; format: functional
Escherichia coli [18] = assay: Antibacterial activity against Escherichia coli ATCC 25922 assessed as inhibition of bacterial growth at 12.5 ug/ml incubated for 24 hrs by CLSI method relative to control; format: functional
MDA-MB-231 [19] = assay: Cytotoxicity against human MDA-MB-231 cells assessed as inhibition of cell proliferation measured after 72 hrs by resazurin dye based AlamarBlue assay; format: functional; details: MDA-MB-231, 72 h
Pseudomonas aeruginosa [20] = assay: Antibacterial activity against Pseudomonas aeruginosa ATCC 10197 assessed as inhibition of bacterial growth at 25 ug/ml incubated for 24 hrs by CLSI method relative to control; format: functional
Pseudomonas aeruginosa [21] = assay: Antibacterial activity against Pseudomonas aeruginosa ATCC 10197 assessed as inhibition of bacterial growth incubated for 24 hrs by CLSI method; format: functional

COC1=CC(=O)C(O)(C(O)CC(C)(C)O)C[C@H]1O (some centres not stated)
Activity (WI-38 [1]): Non-Toxic | Activity (SF-268 [2]): inactive | Activity (NCI-H460 [3]): inactive | Activity (MCF7 [4]): inactive | Activity (PC-3M [5]): inactive | Activity (MDA-MB-231 [6]): inactive

COC1=CC(=O)[C@@]2([C@@H](O)C=C(C)C)O[C@H]2[C@H]1O
Activity (WI-38 [1]): Non-Toxic | Activity (SF-268 [2]): inactive | Activity (NCI-H460 [3]): inactive | Activity (MCF7 [4]): inactive | Activity (PC-3M [5]): inactive | Activity (MDA-MB-231 [6]): inactive

COC1=CC(=O)[C@H]2O[C@H]2[C@H]1O
inhibition at 50 µg/mL (Candida albicans [7]): 50% | Activity (WI-38 [1]): Non-Toxic | Activity (SF-268 [2]): inactive | Activity (NCI-H460 [3]): inactive | Activity (MCF7 [4]): inactive | Activity (PC-3M [5]): inactive | inhibition at 100 µg/mL (Candida albicans [8]): 75% | Activity (MDA-MB-231 [6]): inactive

COC1=CC(=O)[C@](O)([C@H](C=C(C)C)OC(C)=O)C[C@H]1O
Activity (WI-38 [1]): Non-Toxic | Activity (SF-268 [2]): inactive | Activity (NCI-H460 [3]): inactive | Activity (MCF7 [4]): inactive | Activity (PC-3M [5]): inactive | Activity (MDA-MB-231 [6]): inactive

COC1=C[C@@H](O)[C@H]2O[C@H]2C1=O
IC50 (MCF7 [9]): 1600 nM | IC50 (WI-38 [10]): 3800 nM | IC50 (SF-268 [11]): 1700 nM

COC1=CC(=O)[C@H]2O[C@H]2C1=O
IC50 (NCI-H460 [12]): 2500 nM | MBC (Escherichia coli [13]): 25 µg/mL (≈ 162 µM) | MIC (Escherichia coli [13]): 25 µg/mL (≈ 162 µM) | IC50 (MCF7 [9]): 1400 nM | MFC (Candida albicans [14]): 25 µg/mL (≈ 162 µM) | MIC (Candida albicans [14]): 25 µg/mL (≈ 162 µM) | inhibition at 12.5 µg/mL (Candida albicans [15]): 75% | IC50 (WI-38 [10]): 7800 nM | IC50 (SF-268 [11]): 1200 nM | MIC (Staphylococcus aureus): 25 µg/mL (≈ 162 µM) | IC50 (PC-3M [16]): 2500 nM | inhibition at 6.25 µg/mL (Candida albicans [17]): 50% | inhibition at 12.5 µg/mL (Escherichia coli [18]): 75% | IC50 (MDA-MB-231 [19]): 2200 nM | inhibition at 25 µg/mL (Pseudomonas aeruginosa [20]): 50% | MIC (Pseudomonas aeruginosa [21]): 25 µg/mL (≈ 162 µM)

COC1=CC(=O)[C@@](O)([C@@H](C=C(C)C)OC(C)=O)CC1=O
Activity (WI-38 [1]): Non-Toxic | Activity (SF-268 [2]): inactive | Activity (NCI-H460 [3]): inactive | Activity (MCF7 [4]): inactive | Activity (PC-3M [5]): inactive | Activity (MDA-MB-231 [6]): inactive

COC1=CC(=O)[C@@]2([C@H](C=C(C)C)OC(C)=O)O[C@]3(OC)CC(=O)[C@H]4O[C@H]4[C@]3(O)[C@H]2C1=O
Activity (WI-38 [1]): Non-Toxic | IC50 (MCF7 [9]): 2900 nM | Activity (NCI-H460 [3]): inactive | IC50 (SF-268 [11]): 2700 nM | IC50 (PC-3M [16]): 6000 nM | IC50 (MDA-MB-231 [19]): 6000 nM

COc1cccc2c1C(=O)c1c(O)c3c(c(O)c1C2=O)C[C@@](O)(C(=O)CO)C[C@@H]3O[C@H]1C[C@H](N)[C@H](O)[C@H](C)O1 [DOXORUBICIN]
IC50 (NCI-H460 [12]): 100 nM | IC50 (PC-3M [16]): 300 nM | IC50 (MDA-MB-231 [19]): 700 nM

CCCCCCC(=O)C(O)C(O)/C=C/C=C/C=C\C(=O)O (configuration not stated)
Activity (WI-38 [1]): Non-Toxic | Activity (SF-268 [2]): inactive | Activity (NCI-H460 [3]): inactive | Activity (MCF7 [4]): inactive | Activity (PC-3M [5]): inactive | Activity (MDA-MB-231 [6]): inactive

COC1=CC(=O)[C@@]2([C@H](O)C=C(C)C)O[C@H]2C1=O
IC50 (NCI-H460 [12]): 4800 nM | IC50 (MCF7 [9]): 1600 nM | IC50 (WI-38 [10]): 8300 nM | IC50 (SF-268 [11]): 1300 nM | IC50 (PC-3M [16]): 4600 nM | IC50 (MDA-MB-231 [19]): 2600 nM
